Source: patent US10426850B2, “Collagen mimetic peptides for targeting collagen strands for in vitro and in vivo imaging and therapeutic use” (The Johns Hopkins University, priority 2011, dated 2019)
“Also recorded” adds a separate entry of the source. One block for each substance: values may come before it.

Tests used:
[1] = Circular dichroism spectra and thermal melting of CMPs; format: physicochemical
Experimental: Circular dichroism spectroscopy. CD spectra were collected on JASCO 715 spectrophotometer equipped with a JASCO PTC-348 WI temperature controller and quartz cells (0.1 mm path length). CMP solutions (320 μL, 150 μM in 1×PBS) were stored at 4° C. for at least 24 hours before measurement. For photo-decaging, samples were exposed to 365 nm UV light for at least 30 minutes before the 4° C. incubation. The thermal melting studies were performed by measuring the ellipticity at 225 nm with 60° C./hr heating rate. Raw CD signal was normalized to mean residue ellipticity based on the peptide's length and concentration (Biopolymers 95:94-104 (2011)). Melting temperatures (Tm) were determined by fitting the mean residue ellipticity to a two-state model (Org Lett 8:4735-4738 (2006)). To measure the refolding kinetics, CMP solution was thermally denatured at 75° C. for 10 minutes in a cuvette and rapidly quenched to 25° C. in an ice-water bath, after which the CD signal at 225 nm was observed over time at 25° C. The CD spectra of intact and MMP-1 cleaved type I collagen (FIG. 12) was measured in 90 μg/mL protein solutions in 20 mM acetic acid buffer at 22° C. The 37° C. thermal stability profile (FIG. 2E, inset) was generated by monitoring the ellipticity at 222 nm immediately after transferring the cuvette to a temperature controlled cuvette holder pre-set to 37° C. The Tm values reported in this study are approximately 10° C. higher than the equilibrium Tm due to high heating rate (60° C./hr) (Biopolymers 73:682-688 (2004)).
Synthesis of fluorescently labeled collagen mimetic peptides. Non-caged CMPs were synthesized using Fmoc-mediated solid-phase chemistry by manual or automated synthesis as described previously.2,4 The caged NB(GPO)9 (SEQ ID NO: 12) was prepared by introducing Fmoc(N-o-nitrobenzyl)Gly-OH (synthesized according to Tatsu et al. 2,5) in the middle of the standard solid-phase peptide synthesis. The Hyp residue following the NBGly was conjugated using 9 molar equiv of Fmoc-Hyp(tBu)-OH, 8.8 molar equiv of PyBroP, and 20 molar equiv of DIPEA for over 24 hr to overcome the low reactivity caused by the steric hindrance of the NB cage group. The remaining sequence including the GGG spacer was completed by HBTU chemistry, followed by on-resin labeling with 6 molar equivalent of CF or TAMRA activated by 6 molar equivalent of PyAOP for over 24 hr. The full length fluorescent CMPs were cleaved from resin by treating the resin with TFA/TIS/H2O (95:2.5:2.5) for 3 hr and the cleaved peptide was purified by reverse phase HPLC on a Vydac C18 column using a linear gradient mixture of water (0.1% TFA) and acetonitrile (0.1% TFA) (5-45% acetonitrile gradient in 40 min). The purified peptides were analyzed by MALDI-TOF MS (FIG. 27): m/z calculated 2975.1 [M+Na+] for CF(GPO)9 (SEQ ID NO: 10), found 2975.0 [M+Na+]; m/z calculated 2975.1 [M+Na+] for ^SG9P9O9 (SEQ ID NO: 5), found 2973.5 [M+Na+]; m/z calculated 3110.2 [M+Na+] for CF^NB(GPO)9 (SEQ ID NO: 4), found 3109.4 [M+Na+]; m/z calculated 2975.1 [M+Na+] for CF(GPO)9 (SEQ ID NO: 10) [CF^NB(GPO)9 (SEQ ID NO: 4) after UV decaging], found 2974.1 [M+Na+]; m/z calculated 3142.3 [M+H+] for TAMRA-NB(GPO)9 (SEQ ID NO: 12), found 3141.4 [M+H+]; m/z calculated 3007.2 [M+H+] for TAMRA-(GPO)9 (SEQ ID NO: 15), [TAMRA-NB(GPO)9 (SEQ ID NO: 12) after decaging], found 3006.3 [M+H+]. CD spectra and CD melting curves of the labeled CMPs were acquired in PBS solutions using a JASCO 715 CD spectrophotometer. The solutions were incubated for at least 24 hours at 4° C. prior to CD experiment to ensure folding (FIG. 28).

[2] = target: T1, type I collagen films (fibrillar collagen) (Rattus norvegicus, UniProt P02454+P02466); assay: Photo-triggered CMP binding assay on collagen films
T1 construct: Collagen solution (200 μL, 3.71 mg/mL, type I rat tail, BD Science); purchased BD Science; host or cells: rat tail
Experimental: Collagen/gelatin binding assays. Collagen solution (200 μL, 3.71 mg/mL, type I rat tail, BD Science) in 0.02 N acetic acid was added to each well of a 96-well black/clear-bottom plate (Costar) and air-dried. To make gelatin films, the same collagen solution was denatured at 70° C. for 15 minutes before applying to the well. The dried films were neutralized and washed with 1×PBS buffer (pH 7.4) and deionized water. PBS solution of carboxyfluorescein-labeled caged CMP (40 μL, 50 μM, unless indicated otherwise) pre-equilibrated at 4° C. was added onto each reconstituted collagen or gelatin film and exposed to 365 nm UV light (10 mW/cm^2, from mercury arc lamp) for 11 minutes on ice. Wells for the UV-negative control groups were covered with aluminum foil to block UV exposure. After incubation at 4° C. for over 3 hours (unless indicated otherwise), the unbound materials were removed by rinsing with PBS buffer and deionized water. The films were allowed to dry in dark, after which the fluorescence (ex: 489 nm, em: 533 nm) was measured with a SpectraMax Gemini XPS microplate reader (Molecular Devices). Each binding experiment was done in triplicate.

T1 sequence (P02454 152-1207 limits assumed): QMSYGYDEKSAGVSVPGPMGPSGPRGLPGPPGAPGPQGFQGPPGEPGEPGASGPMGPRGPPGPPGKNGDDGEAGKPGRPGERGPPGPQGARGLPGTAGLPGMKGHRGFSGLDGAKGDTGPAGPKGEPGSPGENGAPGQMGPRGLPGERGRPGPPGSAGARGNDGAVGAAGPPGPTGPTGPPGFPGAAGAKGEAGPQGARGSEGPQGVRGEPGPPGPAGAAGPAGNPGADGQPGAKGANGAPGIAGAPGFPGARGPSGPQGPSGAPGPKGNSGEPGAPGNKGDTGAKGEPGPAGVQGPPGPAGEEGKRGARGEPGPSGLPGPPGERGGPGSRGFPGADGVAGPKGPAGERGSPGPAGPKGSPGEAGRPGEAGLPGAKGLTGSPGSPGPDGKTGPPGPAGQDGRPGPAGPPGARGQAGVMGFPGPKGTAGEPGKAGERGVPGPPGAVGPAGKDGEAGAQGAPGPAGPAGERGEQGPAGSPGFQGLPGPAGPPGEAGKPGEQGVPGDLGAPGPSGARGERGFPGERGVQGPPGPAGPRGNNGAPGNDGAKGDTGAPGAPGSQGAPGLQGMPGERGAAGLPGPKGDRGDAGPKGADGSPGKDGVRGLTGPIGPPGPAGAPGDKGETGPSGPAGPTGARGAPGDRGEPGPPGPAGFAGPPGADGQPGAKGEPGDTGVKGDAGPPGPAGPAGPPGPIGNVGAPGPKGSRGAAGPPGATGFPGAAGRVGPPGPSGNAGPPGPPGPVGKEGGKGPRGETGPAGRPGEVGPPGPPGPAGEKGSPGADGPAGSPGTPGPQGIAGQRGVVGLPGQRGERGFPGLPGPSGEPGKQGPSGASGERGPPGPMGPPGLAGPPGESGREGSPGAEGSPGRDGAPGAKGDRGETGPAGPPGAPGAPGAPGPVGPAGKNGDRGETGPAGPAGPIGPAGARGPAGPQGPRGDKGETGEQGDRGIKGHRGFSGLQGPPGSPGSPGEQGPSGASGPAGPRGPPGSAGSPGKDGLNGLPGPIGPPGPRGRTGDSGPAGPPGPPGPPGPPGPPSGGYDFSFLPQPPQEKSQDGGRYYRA
T1 sequence (P02466 86-1125 limits assumed): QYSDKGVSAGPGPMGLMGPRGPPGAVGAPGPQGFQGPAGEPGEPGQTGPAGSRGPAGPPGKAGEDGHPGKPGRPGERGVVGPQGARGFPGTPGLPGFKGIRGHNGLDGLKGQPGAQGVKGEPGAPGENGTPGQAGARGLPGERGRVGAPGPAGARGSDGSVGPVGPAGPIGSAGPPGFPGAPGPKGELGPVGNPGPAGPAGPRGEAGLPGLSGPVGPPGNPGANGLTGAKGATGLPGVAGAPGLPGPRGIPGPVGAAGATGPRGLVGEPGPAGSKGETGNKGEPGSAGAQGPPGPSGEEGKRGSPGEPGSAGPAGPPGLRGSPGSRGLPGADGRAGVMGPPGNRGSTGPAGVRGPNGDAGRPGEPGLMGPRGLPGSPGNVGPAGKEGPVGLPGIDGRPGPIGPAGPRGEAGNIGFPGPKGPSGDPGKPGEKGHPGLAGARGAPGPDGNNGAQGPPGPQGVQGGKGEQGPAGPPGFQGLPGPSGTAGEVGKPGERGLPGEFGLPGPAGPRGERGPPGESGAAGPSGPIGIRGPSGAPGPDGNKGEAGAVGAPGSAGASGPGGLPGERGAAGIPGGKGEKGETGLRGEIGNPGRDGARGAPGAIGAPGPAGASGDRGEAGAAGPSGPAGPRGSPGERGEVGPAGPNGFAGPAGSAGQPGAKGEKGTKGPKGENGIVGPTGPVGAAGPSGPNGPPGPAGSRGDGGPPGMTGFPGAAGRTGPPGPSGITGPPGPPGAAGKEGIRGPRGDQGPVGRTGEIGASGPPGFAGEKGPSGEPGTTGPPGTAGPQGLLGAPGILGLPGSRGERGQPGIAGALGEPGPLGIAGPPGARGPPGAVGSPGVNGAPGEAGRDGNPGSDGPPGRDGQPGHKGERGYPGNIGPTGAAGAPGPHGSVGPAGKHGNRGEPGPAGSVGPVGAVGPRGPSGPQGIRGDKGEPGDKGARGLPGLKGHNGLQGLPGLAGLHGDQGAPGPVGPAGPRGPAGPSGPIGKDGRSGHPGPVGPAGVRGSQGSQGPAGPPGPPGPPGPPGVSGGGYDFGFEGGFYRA

Tm (CD melting curve, triple helix) ([1]; after UV exposure (photo-decaged), heating rate 60° C./hr, Tm about 10° C. higher than equilibrium Tm): 75 °C
binding (fluorescence intensity of film) ([2]; caged, UV−): negligible
Substance: CF-GGG-(GPO)4^NBGPO(GPO)4 [CF^NB(GPO)9]
triple helical folding capacity (CD melting) ([1]; after UV exposure / photo-cleavage of NB cage): regain its full triple helical folding capacity
triple helical folding capacity (CD melting) ([1]; caged, before UV exposure): completely suppressed the CMP's ability to fold into a triple helix
collagen binding with and without UV exposure ([2]; 4° C., intact type I collagen films): collagen binding was observed only after exposing the sample to UV light

Substance: CF-GGG-(GPO)9 [CF(GPO)9]
melting temperature (Tm), CD melting curve ([1]; non-caged peptide in PBS, CD at 225 nm, 1° C./min heating rate): 75 °C
CMP binding lower by a factor of, compared to UV-triggered binding of CF^NB(GPO)9 ([2]; non-caged, triple helical, with UV exposure, 4° C.): 11
heat-induced binding level compared to photo-triggered caged CF^NB(GPO)9 ([2]; thermally melted at 75° C., non-caged): significantly elevated binding levels; also recorded: significantly higher binding level

Substance: CF-GGG-PGOGPGPOPOGOGOPPGOOPGGOOPPG [CF^SG9P9O9, reference compound]
triple helical folding capacity (CD melting) ([1]; sequence-scrambled peptide): lack of triple helical structure
